The values that follow come from paper PMC6792352, “Limited Chemical Structural Diversity Found to Modulate Thyroid Hormone Receptor in the Tox21 Chemical Library” (Environmental Health Perspectives, 2019).

Where a name gives a salt, the structure may show the parent alone.

The first series can be described thus: in vitro. Conditions: rat, gh3-tre-luc cells, AC50 (uM) modified / 1000.
The compound `O=C(O)c1ccc(-n2nc(-c3ccccc3O)nc2-c2ccccc2O)cc1` [Deferasirox] gave a CC50 at 24 h of 41.8 µM.
Consider `Cc1c(O)c(=O)ccn1C` [Deferiprone], for which the CC50 at 24 h was above 50 µM.
Still for that read-out and setting: as for `CC(=O)N(O)CCCCCNC(=O)CCC(=O)N(O)CCCCCNC(=O)CCC(=O)N(O)CCCCCN` [Deferoxamine mesylate], the figure is above 20 µM; as for `CC(=O)OCC(=O)[C@@]12N=C(C)O[C@@H]1C[C@H]1[C@@H]3CCC4=CC(=O)C=C[C@]4(C)[C@H]3[C@@H](O)C[C@@]12C` [Deflazacort], above 90 µM; as for `CC(C)c1ccc2c(c1)CC[C@H]1[C@](C)(CN)CCC[C@]21C` [Dehydroabietylamine acetate], 10.1 µM.
For the compound `CC(=O)C1C(=O)C=C(C)OC1=O` (stereo not shown) [Dehydroacetic acid], the CC50 at 24 h is above 90 µM.
Same read-out and setting: as for `C[C@H](CCC(=O)O)[C@H]1CC[C@H]2[C@@H]3C(=O)C[C@@H]4CC(=O)CC[C@]4(C)[C@H]3CC(=O)[C@]12C` [Dehydrocholic acid], the figure is above 50 µM.
The same measure, in the same setting: then `C[C@]12CC[C@H](O)CC1=CC[C@@H]1[C@@H]2CC[C@]2(C)C(=O)CC[C@@H]12` [Dehydroepiandrosterone], with above 90 µM; and `CCNc1nc(N)nc(Cl)n1` [Deisopropylatrazine], with above 90 µM; and `CCOC(=O)[C@H](CCc1ccccc1)N[C@@H](C)C(=O)N(CC(=O)O)C1Cc2ccccc2C1` [Delapril hydrochloride], with above 50 µM.
The same measure, in the same setting: as for `CC(C)Nc1cccnc1N1CCN(C(=O)c2cc3cc(NS(C)(=O)=O)ccc3[nH]2)CC1` [Delavirdine], the figure is above 50 µM; as for `CC1(C)[C@H](C(=O)O[C@H](C#N)c2cccc(Oc3ccccc3)c2)[C@@H]1C=C(Br)Br` [Deltamethrin], above 100 µM.
For the compound `CN(CCCCCCCCCCN(C)C(=O)Oc1cccc([N+](C)(C)C)c1)C(=O)Oc1cccc([N+](C)(C)C)c1` [Demecarium bromide], the CC50 at 24 h is above 20 µM.
`CN(C)[C@@H]1C(O)=C(C(N)=O)C(=O)[C@@]2(O)C(O)=C3C(=O)c4c(O)ccc(Cl)c4[C@@H](O)[C@H]3C[C@@H]12` [Demeclocycline hydrochloride] displayed a CC50 at 24 h above 50 µM.
For `CC[N+](CC)(CC(=O)Nc1c(C)cccc1C)Cc1ccccc1` [Denatonium benzoate], the CC50 at 24 h was above 50 µM.
Compound `COc1ccc(CCNC[C@H](O)c2ccc(O)cc2)cc1OC` [Denopamine] showed a half-maximal cytotoxic concentration (CC50) at 24 h above 50 µM.
Same read-out and setting: then `CC(=O)OCC(=O)[C@H]1CC[C@H]2[C@@H]3CCC4=CC(=O)CC[C@]4(C)[C@H]3CC[C@]12C` [Deoxycorticosterone acetate], with above 50 µM.
On the same count and under the same terms, as for `CCCCNc1ccc(C(=O)OCCN(CC)CC)cc1` [Depolipon], the figure is above 50 µM; as for `CN1[C@@H]2CC[C@H]1CC(OC1c3ccccc3CCc3ccccc31)C2` (stereo partly shown) [Deptropine citrate], 12.2 µM; as for `Cc1cc(N)c2ccccc2[n+]1CCCCCCCCCC[n+]1c(C)cc(N)c2ccccc21` [Dequalinium dichloride], 12.4 µM.
Same read-out and setting: as for `COc1ccc(-c2cc(C(F)F)nn2-c2ccc(S(N)(=O)=O)cc2)cc1F` [Deracoxib], the figure is above 50 µM.
In turn, `CNCCCN1c2ccccc2CCc2ccccc21` [Desipramine hydrochloride] yielded a CC50 at 24 h of 7.08 µM. In other words, the single-digit micromolar range.
On the same count and under the same terms, as for `C[C@H]1O[C@@H](O[C@H]2CC[C@@]3(C)[C@H](CC[C@@H]4[C@@H]3C[C@@H](O)[C@]3(C)[C@@H](C5=CC(=O)OC5)CC[C@]43O)C2)C[C@H](O)[C@@H]1O[C@H]1C[C@H](O)[C@H](O[C@H]2C[C@H](O)[C@H](O[C@@H]3O[C@H](CO)[C@@H](O)[C@H](O)[C@H]3O)[C@@H](C)O2)[C@@H](C)O1` [Deslanoside], the figure is above 50 µM.
Same read-out and setting: then `CCNC(=O)[C@@H]1CCCN1C(=O)[C@H](CCCN=C(N)N)NC(=O)[C@H](CC(C)C)NC(=O)[C@@H](Cc1c[nH]c2ccccc12)NC(=O)[C@H](Cc1ccc(O)cc1)NC(=O)[C@H](CO)NC(=O)[C@H](Cc1c[nH]c2ccccc12)NC(=O)[C@H](Cc1cnc[nH]1)NC(=O)[C@@H]1CCC(=O)N1` [Deslorelin acetate], with 1.89 µM.
Still for that read-out and setting: then `COc1cc(/C=C/c2ccccc2)oc(=O)c1` [Desmethoxyyangonin], with above 90 µM; and `O=C1CN=C(c2ccccc2)c2cc(Cl)ccc2N1` [Desmethyldiazepam], with above 50 µM; and `N=C(N)NCCC[C@H](NC(=O)[C@@H]1CCCN1C(=O)[C@@H]1CSSCCC(=O)N[C@@H](Cc2ccc(O)cc2)C(=O)N[C@@H](Cc2ccccc2)C(=O)N[C@@H](CCC(N)=O)C(=O)N[C@@H](CC(N)=O)C(=O)N1)C(=O)NCC(N)=O` [Desmopressin acetate], with above 50 µM.
`NC(=O)CC[C@@H]1NC(=O)[C@H](Cc2ccccc2)NC(=O)[C@H](Cc2ccc(O)cc2)NC(=O)CCSSC[C@@H](C(=O)N2CCC[C@H]2C(=O)N[C@H](CCCN=C(N)N)C(=O)NCC(N)=O)NC(=O)[C@H](CC(N)=O)NC1=O` [Desmopressin] registered a CC50 at 24 h above 50 µM.
The same measure, in the same setting: as for `C#C[C@]1(O)CC[C@H]2[C@@H]3CCC4=CCCC[C@@H]4[C@H]3C(=C)C[C@@]21CC` [Desogestrel], the figure is 34.9 µM; as for `CC1(C)O[C@@H]2C[C@H]3[C@@H]4CCC5=CC(=O)C=C[C@]5(C)[C@H]4[C@@H](O)C[C@]3(C)[C@]2(C(=O)CO)O1` [Desonide], above 50 µM; as for `C[C@@H]1C[C@H]2[C@@H]3CCC4=CC(=O)C=C[C@]4(C)[C@@]3(F)[C@@H](O)C[C@]2(C)[C@H]1C(=O)CO` [Desoximetasone], above 50 µM.
On the same count and under the same terms, then `CC(C)(C)C(=O)OCC(=O)[C@H]1CC[C@H]2[C@@H]3CCC4=CC(=O)CC[C@]4(C)[C@H]3CC[C@]12C` [Desoxycorticosterone pivalate], with above 50 µM; and `Cc1cccc(Cc2c[nH]cn2)c1C` [Detomidine hydrochloride], with above 50 µM; and `CN1C(=O)[C@@H](NC(=O)c2cc3ccccc3[nH]2)N=C(c2ccccc2)c2ccccc21` [Devazepide], with above 50 µM.
Still for that read-out and setting: as for `CCC(=O)OCC(=O)[C@@]1(OC(=O)CC)[C@H](C)C[C@H]2[C@@H]3CCC4=CC(=O)C=C[C@]4(C)[C@@]3(F)[C@@H](O)C[C@@]21C` [Dexamethasone dipropionate], the figure is above 50 µM; as for `C[C@@H]1C[C@H]2[C@@H]3CCC4=CC(=O)C=C[C@]4(C)[C@@]3(F)[C@@H](O)C[C@]2(C)[C@@]1(O)C(=O)CO` [Dexamethasone], above 90 µM; as for `C[C@@H]1C[C@H]2[C@@H]3CCC4=CC(=O)C=C[C@]4(C)[C@@]3(F)[C@@H](O)C[C@]2(C)[C@@]1(O)C(=O)COC(=O)c1cccc(S(=O)(=O)O)c1` [Dexamethazone metasulfobenzoate sodium], above 50 µM.
Take `CN(C)CC[C@@H](c1ccc(Br)cc1)c1ccccn1` [Dexbrompheniramine maleate]: the 50% cytotoxic concentration (CC50) at 24 h is 26.6 µM. This counts as double-digit micromolar.
The same measure, in the same setting: as for `CN(C)CC[C@@H](c1ccc(Cl)cc1)c1ccccn1` [Dexchlorpheniramine hydrochloride], the figure is 24.8 µM; as for `N[C@@H](COP(=O)(O)O)C(=O)O` [Dexfosfoserine], above 50 µM.
Same read-out and setting: then `CC(C)Cc1ccc([C@H](C)C(=O)O)cc1` [Dexibuprofen], with above 50 µM; and `CC(C)(CO)[C@@H](O)C(=O)NCCCO` [Dexpanthenol], with above 50 µM.
On the same count and under the same terms, then `CC(C)NC[C@@H](O)COc1cccc2ccccc12` [Dexpropranolol], with 27.7 µM; and `C[C@@H](CN1CC(=O)NC(=O)C1)N1CC(=O)NC(=O)C1` [Dexrazone], with above 50 µM; and `CN1CC[C@@]23CCCC[C@@H]2[C@@H]1Cc1ccc(O)cc13` [Dextrorphan tartrate], with above 50 µM.
For `C[N+](C)(C)CC(O)CCl` (stereo not shown) [Dextrosil], the CC50 at 24 h was above 90 µM.
Same read-out and setting: as for `CCCC[C@@H](CC)COC(=O)c1ccccc1C(=O)OC[C@@H](CC)CCCC` [Di(2-ethylhexyl) phthalate], the figure is above 90 µM.
Same read-out and setting: as for `COCCOC(=O)c1ccccc1C(=O)OCCOC` [Di(2-methoxyethyl) phthalate], the figure is above 90 µM.
The same measure, in the same setting: then `C=C(C)C(=O)OCCOCCOC(=O)C(=C)C` [Di(ethylene glycol) dimethacrylate], with above 90 µM; and `CC(COC(C)(C)C)OCCCO` (stereo not shown) [Di(propylene glycol) tert-butyl ether], with above 90 µM.
`CCCCCCCCCCCCCOC(=O)CCSCCC(=O)OCCCCCCCCCCCCC` [Di(tridecyl) thiodipropionate] yielded a CC50 at 24 h above 20 µM.

Staying with this series, now noted: rat, gh3-tre-luc cells, AC50 (uM) modified / 1000, Tox21_110001=Tox21_110485; viability, 1 nM T3 present, 24 h.
In the case of `CC(=O)O[C@H]1CC[C@@]2(C)C(=CC[C@@H]3[C@@H]2CC[C@]2(C)C(=O)CC[C@@H]32)C1` [Dehydroepiandrosterone acetate], the CC50 at 24 h was above 20 µM.

Still in this series, the particulars now being: rat, gh3-tre-luc cells, AC50 (uM) modified / 1000, Tox21_110001=Tox21_110766; viability, 1 nM T3 present, 24 h.
The compound `COc1ccc2c(c1)[C@]13CCCC[C@@H]1[C@H](C2)N(C)CC3` [Dextromethorphan hydrobromide monohydrate] came in with a CC50 at 24 h above 50 µM.

The same series, now with this note: rat, gh3-tre-luc cells, AC50 (uM) modified / 1000, Tox21_110001=Tox21_111817; viability, 1 nM T3 present, 24 h.
With `O=C1C[N+]([O-])=C(c2ccccc2)c2cc(Cl)ccc2N1` [Demoxepam], the CC50 at 24 h was above 50 µM.

Still in this series, the particulars now being: rat, gh3-tre-luc cells, AC50 (uM) modified / 1000, Tox21_110001=Tox21_112829; viability, 1 nM T3 present, 24 h.
Regarding `C[C@H](CN1CCOCC1)C(C(=O)N1CCCC1)(c1ccccc1)c1ccccc1` [Dextromoramide tartrate], the CC50 at 24 h was above 100 µM.

The series is the same for the next values; noted with them: rat, gh3-tre-luc cells, AC50 (uM) modified / 1000, Tox21_110001=Tox21_112864; viability, 1 nM T3 present, 24 h.
`CCN[C@@H](C)Cc1cccc(C(F)(F)F)c1` [Dexfenfluramine hydrochloride] returned a CC50 at 24 h above 90 µM.

Staying with this series, now noted: rat, gh3-tre-luc cells, AC50 (uM) modified / 1000, Tox21_110001=Tox21_200963; viability, 1 nM T3 present, 24 h.
Compound `CC(=O)O[C@H]1CC[C@@]2(C)C(=CC[C@@H]3[C@@H]2CC[C@]2(C)C(=O)CC[C@@H]32)C1` [Dehydroepiandrosterone acetate] gave a CC50 at 24 h above 90 µM.

The series is the same for the next values; noted with them: rat, gh3-tre-luc cells, AC50 (uM) modified / 1000, Tox21_110001=Tox21_301854; viability, 1 nM T3 present, 24 h.
Turning to `CCOC(=O)Nc1cccc(OC(=O)Nc2ccccc2)c1` [Desmedipham], the CC50 at 24 h is above 90 µM.
